Results from patent publication US9856221B2, “Salt of ivabradine and process for the preparation thereof” (LES LABORATOIRES SERVIER, priority 2014, dated 2018).
Values joined by “and” are separate entries in the source; they are usually repeats but may differ in a detail not shown here. Equal values may be shown once. Where a name gives a salt, the structure may show the parent alone.

Columns and labels:
[1] = Dissolution test (paddle apparatus, Ph. Eur. 2.9.3), release of active ingredient; assay type: physicochemical; settings: for % of active ingredient released (individual units B1-B6) / % of active ingredient released, Mean: 0.01 N HCl pH~2.1, 37°C, paddle 50 rpm; for % of active ingredient released (individual units B1-B6): 500 mL; for % of active ingredient released, Mean: mean of 6 units
Procedure: Dissolution Test Operating Conditions for Dissolution Paddle dissolution apparatus described in the European pharmacopoeia (2.9.3) Dissolution medium: 0.01 N hydrochloric acid (pH˜2.1) degassed Temperature of the medium: 37° C.±0.5° C. Volume of the medium: 500 mL±5 mL Speed of rotation of the blades: 50 rpm±2 rpm Standard sampling time: 0, 15, 30 and 45 min Added sampling times: 1, 2, 4, 6, 8, 12 and 16 h Volume removed: 1 mL Replacement of the volume removed: no Number of units tested: 6 Number of units per flask: 1

[2] = In vitro release of ivabradine hydrochloride (immediate-release formulation); assay type: physicochemical

Structure (SMILES): COc1cc2c(cc1OC)CC(=O)N(CCCN(C)C[C@H]1Cc3cc(OC)c(OC)cc31)CC2 [ivabradine hemipamoate]
- ivabradine hemipamoate released ([1]; after approximately 6 hours, in vitro dissolution test): 80%
- Derivative (of % of active ingredient released over time) ([1]; time 0 hour): 0 %/min
- % of active ingredient released (individual units B1-B6) ([1]; time 0 hour): 0%
- % of active ingredient released, Mean ([1]; time 0 hour): 0%
- Derivative (of % of active ingredient released over time) ([1]; time 0.25 hour): 0.79 %/min
- % of active ingredient released (individual units B1-B6) ([1]; time 0.25 hour): 12% (3×) and 11% (2×) and 13%
- % of active ingredient released, Mean ([1]; time 0.25 hour): 12%
- Derivative (of % of active ingredient released over time) ([1]; time 0.5 hour): 0.4 %/min
- % of active ingredient released (individual units B1-B6) ([1]; time 0.5 hour): 18% (2×) and 17% (2×) and 20% and 16%
- % of active ingredient released, Mean ([1]; time 0.5 hour): 18%
- Derivative (of % of active ingredient released over time) ([1]; time 0.75 hour): 0.26 %/min
- % of active ingredient released (individual units B1-B6) ([1]; time 0.75 hour): 21% (2×) and 22% (2×) and 24% and 20%
- % of active ingredient released, Mean ([1]; time 0.75 hour): 22%
- Derivative (of % of active ingredient released over time) ([1]; time 1 hour): 0.2 %/min
- % of active ingredient released (individual units B1-B6) ([1]; time 1 hour): 24% and 25% and 26% and 28% and 23% (2×)
- % of active ingredient released, Mean ([1]; time 1 hour): 25%
- Derivative (of % of active ingredient released over time) ([1]; time 2 hour): 0.23 %/min
- % of active ingredient released (individual units B1-B6) ([1]; time 2 hour): 38% (2×) and 40% (2×) and 43% and 34%
- % of active ingredient released, Mean ([1]; time 2 hour): 39%
- Derivative (of % of active ingredient released over time) ([1]; time 4 hour): 0.25 %/min
- % of active ingredient released (individual units B1-B6) ([1]; time 4 hour): 64% and 70% (2×) and 71% and 72% and 66%
- % of active ingredient released, Mean ([1]; time 4 hour): 69%
- Derivative (of % of active ingredient released over time) ([1]; time 6 hour): 0.15 %/min
- % of active ingredient released (individual units B1-B6) ([1]; time 6 hour): 81% and 89% and 88% and 85% and 91% and 84%
- % of active ingredient released, Mean ([1]; time 6 hour): 86%
- Derivative (of % of active ingredient released over time) ([1]; time 8 hour): 0.07 %/min
- % of active ingredient released (individual units B1-B6) ([1]; time 8 hour): 89% and 99% and 96% and 94% and 101% and 93%
- % of active ingredient released, Mean ([1]; time 8 hour): 95%
- Derivative (of % of active ingredient released over time) ([1]; time 12 hour): 0.03 %/min
- % of active ingredient released (individual units B1-B6) ([1]; time 12 hour): 96% and 109% and 102% and 103% and 110% and 101%
- % of active ingredient released, Mean ([1]; time 12 hour): 104%
- Derivative (of % of active ingredient released over time) ([1]; time 16 hour): 0.01 %/min
- % of active ingredient released (individual units B1-B6) ([1]; time 16 hour): 98% and 114% (2×) and 104% and 106% and 105%
- % of active ingredient released, Mean ([1]; time 16 hour): 107%

Structure (SMILES): COc1cc2c(cc1OC)CC(=O)N(CCCN(C)C[C@H]1Cc3cc(OC)c(OC)cc31)CC2 [ivabradine hydrochloride, 3-{3-[{[(7S)-3,4-dimethoxybicyclo[4.2.0]octa-1,3,5-trien-7-yl]methyl}-(methyl)amino]propyl}-7,8-dimethoxy-1,3,4,5-tetrahydro-2H-3-benzazepin-2-one]
- time in which all the salt is released in vitro [2]: 15 min
